The text below walks through data of patent publication US20030138374A1, “Image diagnosis probe based on substituted azobenzene or analogue thereof for disease attributable to amyloid accumulation and composition for image diagnosis containing the same” (priority 2000, published 2003).

One series addresses T1, amyloid β protein (Homo sapiens, UniProt P05067).
T1 construct: the amyloid β protein (purchased from Peptide Laboratory) was dissolved in a potassium phosphate buffer (pH7.4); purchased Peptide Laboratory
Kind of series: β structure recognition of amyloid β protein (thioflavin T fluorescence). It is filed as binding. Particulars: for β structure recognition (%) at 1 µM: read-out: β Structure recognition (%); for β structure recognition (in words): comment on Table I. How it is done: (1) Method of Quantifying the Amyloid β Protein Having β Sheet Structure—method of Measuring of Recognition of β Structure in a Test Compound
Then, each 100 microliters of thioflavin T (which emits fluorescence depending on an extent of β structure of the amyloid β protein) dissolved in a glycine-NaOH buffer (pH 8.5) was added (final concentration 3 μM), and the fluorescence was immediately measured with a fluorescent microplate reader (manufactured by Molecular Device, Model fmax) at an excitation wavelength of 442 nm and a measurement wavelength of 485 nm. When the fluorescence of thioflavin alone was regarded as A, the fluorescence under the coexistence of the amyloid β protein and thioflavin T was regarded as B, and the fluorescence under the coexistence of the amyloid β protein, thioflavin T and a test compound was regarded as C, the recognition of β structure for the test compound was calculated by the following formula (unless otherwise indicated, the concentration of a test compound was 1 μM):
β structure recognition for test compound (%)={(B−C)/(B−A)}×100

For the next series, the target named is T2, insulin (Homo sapiens, UniProt P01308).
T2 construct: insulin (purchased from Sigma) was dissolved in deionized water; purchased Sigma
In words: Insulin β structure recognition (thioflavin T fluorescence). Particulars: insulin 0.1 mg/ml with β structure; average of two measurements; read-out: Insulin β sheet structure recognition EC50. It is filed as binding. The text has this: (2)Method of Measuring Insulin β Structure Recognition
It is known that proteins having β sheet structure such as insulin, amylin, etc are present in the human body in addition to the amyloid β protein (Burket et al., Biochemistry, vol. 11, p. 2435-2439, 1972; Ashburn et al, Chemistry and Biology, vol. 3, p. 351-358, 1996). It is desirable that a probe for diagnosing diseases in which amyloid is accumulated, including Alzheimer's disease by recognizing the amyloid protein, has the higher affinity with the amyloid β protein and has the lower affinity with other proteins having β sheet structure. Then, the affinity of each compound to insulin having β structure was measured.
A method of quantifying β sheet structure of insulin in vitro was slightly modified to be used in the test of the present invention, with reference to the report by Klunk et al. (Journal of Histochemistry and Cytochemistry, vol.37, p.1237-1281, 1989). That is, insulin (purchased from Sigma) was dissolved in deionized water, adjusted to pH2 with hydrochloric acid, heated at 92° C. for 10 minutes, and cooled in a dry ice/ethanol cooling bath. Thereafter, heating at 92° C. for 3 minutes and cooling in a dry ice/ethanol cooling bath were repeated 7 or 8 times. This insulin solution was further diluted to 0.1 mg/ml with a phosphate buffer (pH 7.4) , and dispensed in a 96-well microplate at each volume of 50 microliters. A test compound dissolved in deionized water was dispensed at a volume of 50 microliters, and thiofravin T (emitting fluorescence depending on an extent of β structure) dissolved in a glycine-NaOH buffer (pH 8.5) was dispensed at each volume of 100 microliters, and then the fluorescent extent was measured with a fluorescent microplate reader (manufactured by Molecular Device, Model fmax) at an excitation wavelength of 442 nm and a measurement wavelength of 485 nm. When the fluorescence of thioflavin T alone was regarded as D, the fluorescence under the coexistence of insulin and thioflavin T was regarded as E, and the fluorescence under the coexistence of insulin, thioflavin T and a test compound was regarded as F, the insulin β structure recognition for the test compound was calculated by the following formula:
Insulin β structure recognition for test compound (%) ={(E−F)/(E−D)}×100
based on this value, by using the BSAS (Biological Statistical Analysis System) statistic program the 50% effective concentration (EC50) for recognizing an insulin β sheet structure for the test compound was obtained.

Series [1] can be described thus: Distribution coefficient between water/1-octanol. The format is physicochemical. Particulars: 1-octanol / aqueous phase, pH 5.
Series [2] can be described thus: Distribution coefficient between water/1-octanol. It is filed as physicochemical. How it is done:
As an oily phase, 1-octanol was used and, as an aqueous phase, a phosphate buffer (pH 7.3) or ultra-pure water was used. A suitable amount of a test compound was dissolved in an oily phase or an aqueous phase, and both phases were placed in the same test tube, and shaken vigorously at room temperature for 30 minutes. After allowing to stand at room temperature over 1 hour, centrifugation at 2000 rpm for 10 minutes was carried out, followed by further standing at room temperature for 1 hour. The aqueous phase and the oily phase were sampled, respectively, and transferred to a 96-well microplate. By using a microplate reader (manufactured by Molecular Device, Model Spectramax 250), the absorbance was measured at a maximum absorbing wavelength for each test compound, and the concentration of the test compound was calculated from a calibration curve previously obtained. A distribution coefficient was calculated by the following formula. Distribution coefficient for test compound =(concentration of test compound in oily phase)/(concentration of test compound in aqueous phase) As the distribution coefficient becomes larger, it can be said that the blood-brain barrier permeability for the test compound is higher.

[3] abbreviates: test compound 1 μM, thioflavin T 3 μM, average of duplicated experiments.

Broadly, the EC50 is the concentration needed to bring the measured effect to its halfway point.

Structures are written as SMILES. Like-named read-outs stand apart in the source and are kept apart here.

T1 sequence (P05067 672-711 limits assumed): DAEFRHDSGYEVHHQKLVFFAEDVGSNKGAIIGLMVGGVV
T2 sequence (P01308 25-54 limits assumed, species assumed): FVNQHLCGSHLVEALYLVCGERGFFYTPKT
T2 sequence (P01308 90-110 limits assumed, species assumed): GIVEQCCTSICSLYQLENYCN

For the molecule `O=C(O)c1cc(/N=N/c2ccc(-c3ccc(/N=N/c4ccc(O)c(C(=O)O)c4)cc3)cc2)ccc1O` [Chrysamine G, reference compound], the β structure recognition (%) at 1 µM on amyloid β protein (setting [3]) stood at 66.8%. Further, the EC50 on insulin is 253 nM. Besides, in series [1], the Distribution coefficient was 9.7 (pH 5).
On to `CN(C)c1ccc(/C=C/c2cccc(/C=C/c3ccc(N(C)C)cc3)[n+]2C)cc1.[I-]` [Compound N-039, N-[4-(2-{6-[4-(dimethylamino)styryl]-1-methylpiridinium-2-yl}vinyl)phenyl]-N-methylmethanamine], for which, on amyloid β protein, the “β structure recognition (in words)” value is “highly recognize β structure”. At amyloid β protein (setting [3]), the β structure recognition (%) at 1 µM amounted to 97.7%. This molecule registered a Distribution coefficient in series [2] (1-octanol / phosphate buffer (pH 7.3) or ultra-pure water) of 35. Moreover, the “Distribution coefficient (in words)” value in series [2] (comment on Table I) is “high distribution coefficients”. Besides, the concentration for a half-maximal effect (EC50) at insulin came to 113 nM.
For `CCN(CC)c1ccc(/N=C/c2ccc(N(CC)CC)cc2O)cc1` [Compound N-058, 5-(diethylamino)-2-({[4-(diethylamino)phenyl]imino}methyl)phenol], the “β structure recognition (in words)” value at amyloid β protein is given as “highly recognize β structure”. Moreover, on amyloid β protein (setting [3]), the “β Structure recognition (%)” value is given as 93.6%. In addition, the EC50 at insulin is 129 nM.
On to `Nc1c(/N=N/c2ccc(-c3ccc(/N=N/c4cc(S(=O)(=O)O)c5ccccc5c4N)cc3)cc2)cc(S(=O)(=O)O)c2ccccc12` [Congo red, reference compound], for which the β structure recognition (%) at 1 µM at amyloid β protein (setting [3]) was 89.3%. Also, the EC50 on insulin is 153 nM.
With `CCN(CC)c1ccc(/N=N/c2ccc(Br)cn2)c(O)c1` [SA-147], on amyloid β protein, the “β structure recognition (in words)” value is “highly recognize β structure”. Besides, the β structure recognition (%) at 1 µM at amyloid β protein (setting [3]) worked out at 87.2%. For the same molecule, at insulin, the EC50 was found to be 38 nM.
Turning to `CN(C)c1ccc(/N=N/c2ccc(N=C=S)cc2)cc1` [SA-239, 4-((4-isothiocyanatphenyl)azo)-N,N-dimethylaniline], on amyloid β protein, the “β structure recognition (in words)” value is given as “highly recognize β structure” and the β structure recognition (%) at 1 µM stood at 83.3%. Further, the EC50 on insulin turned out to be 120 nM.
Take `CN(C)c1ccc(/N=C2\C=CC(=O)c3ccccc32)cc1` [SA-244, Indophenol Blue]: on amyloid β protein, the “β structure recognition (in words)” value was “highly recognize β structure”. Also, the β structure recognition (%) at 1 µM at amyloid β protein (setting [3]) stood at 96.9%. Further, the EC50 at insulin turned out to be 449 nM.
